Test results published in PMC12368660, “Synergistic Ciprofloxacin-RWn Peptide Therapy Overcomes Drug Resistance in Gram-Negative Bacteria” (ACS Omega, 2025).
No end group written: not given here.

Experiments:
[1] = system: human embryonic kidney (HEK293) cells (ATCC CRL-1573); format: cell-based; conditions: 24 h
Procedure: HEK293 cells were cultured in Dulbecco's modified Eagle's medium (DMEM; Gibco, Thermo Fisher Scientific, Waltham, MA) supplemented with 10% (v/v) fetal bovine serum (FBS; Gibco) and 1% penicillin/streptomycin (Gibco) at 37 °C in a humidified atmosphere containing 5% CO2. Cells were seeded in 384-well plates at a density of 5 × 10^3 cells/well and incubated for 24 h. Compounds were then added to the wells at various concentrations. After a further 24 h incubation, resazurin (Sigma-Aldrich) was added to each well to a final concentration of 44 μM. After 4 h of incubation, fluorescence was measured at excitation/emission wavelengths of 560/590 nm using a Tecan […] microplate reader. Cell viability was expressed as a percentage relative to that of untreated control cells. […] All assays were conducted in duplicate (n = 2) across separate assay plates. […]

[2] = system: human umbilical vein endothelial (HUVEC) cells
[3] = cited from earlier work; for Solubility in 1x DPBS, estimated maximum concentration tested or achieved: pH 7.1
Procedure: Ciprofloxacin (CIP; Sigma-Aldrich, St. Louis, MO) and synthesized peptides were dissolved to prepare stock solutions. […] Solubility Test Results for Synthetic RWn Peptides. Peptide Ultrapure Waterᵃ 1x DPBS (pH 7.1 ± DMSOᵃ Formic Acid ID 0.1)ᵃ (HCOOH)ᵃ RW4 Dissolved (≤10 Dissolved (≤5 mg/mL) Dissolved (≤15 mg/mL) N/A mg/mL) RW4P Dissolved (≤2 Dissolved (≤2 mg/mL) Dissolved (≤10 mg/mL) N/A mg/mL) RW6 Dissolved (≤10 Undissolved Dissolved (≥10 mg/mL) N/A mg/mL) RW6P Dissolved (≤5 Undissolved Dissolved (≥10 mg/mL) N/A mg/mL) RW6-2P Undissolved Undissolved Dissolved (≤2 mg/mL) N/A RW8 Dissolved (≤5 Undissolved Dissolved (≤15 mg/mL) N/A mg/mL) RW8P Undissolved Undissolved Undissolved Dissolved (≤5 mg ...

[4] = system: human embryonic kidney (HEK293) cells (ATCC CRL-1573); design: method as in earlier work; conditions: cited from earlier work
[5] = system: human umbilical vein endothelial (HUVEC) cells; design: method as in earlier work; conditions: cited from earlier work

Compound | HEK293 (CC50) [1] [µg/mL] | HUVEC (CC50) [2] [µg/mL] | Solubility in DMSO, estimated maximum concentration tested or achieved [3] [µg/mL] | Solubility in ultrapure water, estimated maximum concentration tested or achieved [3] [µg/mL] | Solubility in 1x DPBS, estimated maximum concentration tested or achieved [3] [µg/mL] | concentration without detectable cytotoxicity, HEK293 [4] [ng/mL] | concentration without detectable cytotoxicity, HUVEC [5] [ng/mL] | Solubility in formic acid (HCOOH), estimated maximum concentration tested or achieved [3] [µg/mL]
N=C(N)NCCC[C@H](NC(=O)[C@H](Cc1c[nH]c2ccccc12)NC(=O)[C@H](CCCNC(=N)N)NC(=O)[C@H](Cc1c[nH]c2ccccc12)NC(=O)[C@H](CCCNC(=N)N)NC(=O)[C@H](Cc1c[nH]c2ccccc12)NC(=O)[C@H](CCCNC(=N)N)NC(=O)[C@H](Cc1c[nH]c2ccccc12)NC(=O)[C@H](CCCNC(=N)N)NC(=O)[C@H](Cc1c[nH]c2ccccc12)NC(=O)[C@@H](N)CCCNC(=N)N)C(=O)N[C@@H](Cc1c[nH]c2ccccc12)C(=O)O [RW6] | >32 | >32 | ≥ 10000 | ≤ 10000 |  |  |  | 
RWRWPRWRW-NH2 [RW4P] |  |  | ≤ 10000 | ≤ 2000 | ≤ 2000 |  |  | 
RWRWPRWRWPRWRW-NH2 [RW6–2P] |  |  | ≤ 2000 |  |  |  |  | 
RWRWRWPRWRWRW-NH2 [RW6P] |  |  | ≥ 10000 | ≤ 5000 |  |  |  | 
RWRWRWRW [RW4] | >32 | >32 | ≤ 15000 | ≤ 10000 | ≤ 5000 | > 32000 | > 32000 | 
RWRWRWRWPRWRWRWRW-NH2 [RW8P] |  |  |  |  |  |  |  | ≤ 5000
RWRWRWRWRWRWRWRW [RW8, arginine-tryptophan-rich antimicrobial peptide, 16 AA] |  |  | ≤ 15000 | ≤ 5000 |  |  |  | 
